Reference: PMC2361176, “Inhibitory effects of retinoic acid metabolism blocking agents (RAMBAs) on the growth of human prostate cancer cells and LNCaP prostate tumour xenografts in SCID mice” (British Journal of Cancer, 2006)
Entries after “also recorded” stand apart in the source; their conditions may differ.

Legend:
[1] = system: LNCaP cells; assay: TUNEL assay of apoptosis in LNCaP cells; assay type: cell-based, human; details: 6 days; for percentage of apoptotic cells (TUNEL): 5 μM; for induction of apoptosis (TUNEL): 1 or 5 μM
Description: A total of 4000 LNCaP cells were plated on each well of an eight-well Lab-Tek II® chamber slide (Nalge Nunc International, Naperville, IL, USA). The LNCaP cells were then treated with either 1 or 5 μM of ATRA or RAMBA for 6 days. Cells were then fixed in 4% paraformaldehyde solution in dH2O. The cells were then processed and stained with FITC (fluorescein isothiocyanate) according to kit instructions (In situ cell death detection kit, AP, Roche Diagnostics Corp., Indianapolis, IN, USA). The FITC-stained cells are then mounted with VectorShield® mounting medium for fluorescence with DAPI (4′,6-diamidine-2′-phenylindole dihydrochloride) nuclear stain (Vector Laboratories, Inc., Burlingame, CA, USA) and covered with ApopTag® plastic coverslips (Intergen Company, Purchase, NY, USA). The slides were then examined under fluorescence microscopy (Eclipse E400, Nikon, Inc., Melville, NY, USA) and counted using SPOT Advance® 3.5 software (Diagnostic Instruments, Inc., Sterling Heights, MI, USA).

[2] = molecular target: T1, CYP26 (Homo sapiens, UniProt O43174); assay: Cellular microsomal CYP26 assay (ATRA metabolism of microsomes prepared from T47D cells); assay type: biochemical
T1 construct: LNCaP cells were incubated with 1 μM ATRA for 24 h to induce the CYP26 enzyme; endogenous in cells; host or cells: LNCaP human prostate cancer cells, pre-treated with 1 μM ATRA
T1 sequence (O43174 1-497): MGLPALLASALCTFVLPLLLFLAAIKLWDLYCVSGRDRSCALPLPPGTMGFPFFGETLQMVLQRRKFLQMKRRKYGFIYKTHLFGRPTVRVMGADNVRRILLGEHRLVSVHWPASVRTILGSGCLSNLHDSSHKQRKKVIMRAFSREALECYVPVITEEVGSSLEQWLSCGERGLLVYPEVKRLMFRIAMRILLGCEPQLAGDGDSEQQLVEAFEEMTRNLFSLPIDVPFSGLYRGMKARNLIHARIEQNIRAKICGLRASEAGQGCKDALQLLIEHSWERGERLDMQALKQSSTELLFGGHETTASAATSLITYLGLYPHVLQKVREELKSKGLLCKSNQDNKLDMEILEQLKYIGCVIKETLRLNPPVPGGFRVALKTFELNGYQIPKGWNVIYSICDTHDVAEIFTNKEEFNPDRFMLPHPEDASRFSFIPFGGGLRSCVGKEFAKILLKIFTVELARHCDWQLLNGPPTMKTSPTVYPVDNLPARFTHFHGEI

[3] = Tolerability and body weight in the LNCaP xenograft study; assay type: in vivo; details: 0.033 mmol kg−1 once daily
Description: All animal studies were performed according to the guidelines and approval of the Animal Care Committee of the University of Maryland School of Medicine, and were consistent with United Kingdom Coordinating Committee on Cancer Research guidelines for the welfare of animals in experimental neoplasia. The procedure was modified from [Grigoryev et al (1999)]. Briefly, LNCaP cells were trypsinised, counted, and suspended in Matrigel (2 × 10^7 cells ml^−1) (Fisher Scientific International, Inc., Hampton, NH, USA). Male SCID mice of 4–6 weeks of age were obtained from the National Cancer Institute (Frederick, MD, USA). Each mouse was inoculated s.c. with 0.1 ml of the cell suspension at two sites in the flank. The size of the tumours was determined by measuring the tumour volumes using calipers. Tumour volumes were calculated using the formula V=4/3 × π × r1^2 × r2(r1<r2). The tumours were allowed to develop to approximately 100 mm^3 before treatment. […] Tumour volumes were measured twice weekly and weights of animals were taken weekly after the initiation of treatment. The mice were subjected to 6 weeks of treatment. The mice were then killed and the tumours were excised, weighed, and stored at −80°C until analysis. Additionally, the plasma was collected with 50 IU of heparin and stored at −80°C until analysis.

[4] = system: Bcl-2; assay: Western-blot analysis of Bcl-2 in LNCaP cells; assay type: cell-based, human; details: data not shown
Description: (§1) The Western-blot protocol described for cytokeratins 8/18 was followed with some exceptions. Cell lysates (50 μg) were separated on a 15% SDS–PAGE gel. All washing was performed using TBS containing 1% Tween 20 (TBS-T). Blocking was performed using 5% milk in TBS-T. Incubations were performed using rabbit monoclonal IgG antibody to Bad and Bcl-2 (1 : 1000), as well as horseradish peroxidase-linked anti-rabbit IgG antibodies (1 : 2000) (Cell Signaling Technology, Beverly, MA, USA).

[5] = system: T47D cells; set-up: method as in Patel et al, 2004; details: cellular assay; ref Patel et al, 2004; read-out: IC50, inhibition of ATRA metabolism in T47D cells; cited from earlier work
[6] = molecular target: T1, CYP26; assay: Cellular CYP26 assay: inhibition of ATRA metabolism in intact LNCaP cells; assay type: cell-based; details: intact LNCaP cells pretreated with 1 μM ATRA; [11,12-3H]-ATRA substrate; HPLC
Description: Following ATRA treatment, the LNCaP cells were incubated with 0.1 or 0.8 μM [11,12-^3H]-ATRA (PerkinElmer Life and Analytical Sciences, Inc., Boston, MA, USA) for 5 h. Following the 5 h incubation, the medium was collected and the cells were trypsinised and collected.

[7] = system: MCF-7 human breast cancer model; set-up: method as in Patel et al, 2004, 2006; details: ref Patel et al, 2004, 2006; cited from earlier work
[8] = system: Bad; assay: Western-blot analysis of Bad in LNCaP cells; assay type: cell-based, human; details: 5 and 10 μM, P<0.05
Description: as §1

IC50 [6]	Compound	percentage of apoptotic cells (TUNEL) [1]	induction of apoptosis (TUNEL) [1]	fold higher potency in microsomes compared to the cellular IC50 value ([2]; microsomal vs cellular IC50)	IC50 ([2]; microsomes, read-out: IC50, inhibition of ATRA metabolism of microsomes prepared from T47D cells previously exposed to ATRA)	toxicity to the mice [3]	expression of Bcl-2 [4]	IC50 [5]	antitumour efficacy [7]	Bad expression compared with control [8]	reduction of body weights compared to control ([3]; data not shown)
62.5 ± 12.5 nM	CC1=C(/C=C/C(C)=C/C=C/C(C)=C/C(=O)Nc2ccc(O)cc2)C(C)(C)CCC1n1ccnc1 (centres unmarked) [VN/66-1]		concentration-dependent induction of apoptosis				did not effect				
90 ± 12.5 nM	CC1=C(/C=C/C(C)=C/C=C/C(C)=C\C(=O)Nc2ccc(O)cc2)C(C)(C)CCC1n1ccnc1 (centres unmarked) [VN/69-1]		concentration-dependent induction of apoptosis				did not effect				
6.5 ± 1.5 nM	CC1=C(/C=C/C(C)=C/C=C/C(C)=C/C(=O)O)C(C)(C)CCC1n1ccnc1 (centres unmarked) [VN/14-1]	17.03%	concentration-dependent induction of apoptosis				concentration-dependent decrease		excellent antitumour efficacy		
	CC1=C(/C=C/C(C)=C/C=C/C(C)=C/C(=O)O)C(C)(C)CCC1 [ATRA, all-trans-retinoic acid, reference compound]		concentration-dependent induction of apoptosis				concentration-dependent decrease			significant increase	~25%

Compound	IC50 [6]	percentage of apoptotic cells (TUNEL) [1]	induction of apoptosis (TUNEL) [1]	fold higher potency in microsomes compared to the cellular IC50 value ([2]; microsomal vs cellular IC50)	IC50 ([2]; microsomes, read-out: IC50, inhibition of ATRA metabolism of microsomes prepared from T47D cells previously exposed to ATRA)	toxicity to the mice [3]	expression of Bcl-2 [4]	IC50 [5]	antitumour efficacy [7]	Bad expression compared with control [8]	reduction of body weights compared to control ([3]; data not shown)
CC1=C(/C=C/C(C)=C/C=C/C(C)=C/C(=O)n2ccnc2)C(C)(C)CCC1n1ccnc1 (centres unmarked) [VN/50-1]	90 ± 10 nM	17.03%	concentration-dependent induction of apoptosis	~13 fold	7 ± 1.2 nM	very toxic; also recorded: toxic	did not effect	10 nM			
